Several values for one entry are separate records, joined by “and”; a condition that tells them apart may be missing. Equal values may be shown once.
Legend:
hCA IX = biological target: T1, hCA IX (Homo sapiens, UniProt Q16790); experiment: Carbonic anhydrase inhibition, stopped-flow CO2 hydration, hCA IX; format: biochemical; conditions: read-out: IC50 (mean ± SD) Carbonic anhydrase isoforms hCA IX
T1 construct: made in house
Method: (§1) There was further information in the supplemental file.
(§2) An applied photophysics stopped-flow instrument was used for assaying the CA-catalyzed CO2 hydration activity. […] The CO2 concentrations ranged from 1.7 to 17 mM for the determination of the kinetic parameters and inhibition constants. For each inhibitor, at least six traces of the initial 5–10% of the reaction were used for determining the initial rate. The uncatalyzed rates were determined in the same manner and subtracted from the total observed rates. Stock solutions of inhibitor (0.1 mM) were prepared in distilled-deionized water, and dilutions up to 0.01 nM were done thereafter with distilled-deionized water. Inhibitor and enzyme solutions were preincubated together for 15 min at room temperature before assay in order to allow for the formation of the E-I complex. The inhibition constants were obtained by nonlinear least-squares methods using PRISM 3, and the Cheng –Prusoff equation, and represent the mean from at least three different determinations. All CA isoforms were recombinant ones obtained in-house.

[1] = tested on: retinal pigment epithelial normal RPE-1 cell line; experiment: Cytotoxic activity (MTT assay) against normal cell line RPE-1; format: cell-based; conditions: Homo sapiens, normal RPE-1 cells, read-out: IC50 (mean ± SD) RPE-1
Source text: Furthermore, the MTT assay was utilized to estimate the cytotoxic activity of the extremely potent derivatives 4, 7 and 9 against the normal cell line RPE-1, with the aim of examining their safety profiles (Table 1). […] They could therefore be thought of as safe cytotoxic agents.
(§3) The supplemental file contained extra details.

Bcl-2 = Bcl-2 level in MCF-7 cells; format: cell-based, human; conditions: 24 h, 21.15 μM
Source text: (§4) Additionally, compound 9 boosted the p53 protein level by 7.4 times in MCF-7 treated cells compared to 125.40 Pg/mL in control cells (Table 3).
(§5) Bax, Bcl-2 and p53 levels in MCF-7 cells were clarified utilising the previously reported approach for the promising benzenesulfonamide-1,2,3-triazole-glycosides 9.
(§6) The levels of the apoptotic marker Bax and anti-apoptotic marker Bcl-2 were estimated using BIO RAD iScript TM One-Step RT-PCR kit with SYBR® Green. The procedure of the used kit was done according to the manufacturer’s instructions.

MCF-7 cells [2] = experiment: Apoptosis detection, Annexin V-FITC/PI flow cytometry; format: cell-based, human; conditions: 21.15 μM, 24 h
Method: (§7) The cells were further examined through flow cytometry with annexin-V staining (Figs. 5–7).
(§8) The examination of cell cycle analysis and apoptosis was explained[66] with the use of flow cytometry. Benzenesulfonamide-1,2,3-triazole-glycosides 9 was applied to MCF-7 cells for a duration of 24 h, and the cells were then incubated at 37 °C. Further details were included in the supplemental file.
(§9) Cell cycle analysis and apoptosis study were carried out using flow cytometry. MCF-7 cells were seeded at 8×10^4 and incubated at 37°C in 5% CO2 overnight. After treatment with the tested compound 10 for 24 h, cell pellets were collected and centrifuged (300 g, 5 min). For cell cycle analysis cell pellets were fixed with 70% ethanol on ice for 15 min and collected again. The pellets were incubated with propidium iodide (PI) staining solution at room temperature for 1 h and analyzed by a Gallios flow cytometer (Beckman Coulter, Brea, CA, USA). Apoptosis detection was carried out by FITC AnnexinV/PI commercial kit (Becton Dickenson, Franklin Lakes, NJ, USA) following the manufacturer protocol. The samples were analyzed by fluorescence-activated cell sorting (FACS) with a Gallios flow cytometer (Beckman Coulter, Brea, CA, USA) within 1 h after staining. Data were analyzed using Kaluza v 1.2 (Beckman Coulter).

MCF-7 cells [3] = experiment: Cell cycle analysis by flow cytometry (PI); format: cell-based, human; conditions: 21.15 μM, 24 h, 48 h (Table S6 title)
Method: as §7, §8, §9

p53 = p53 level in MCF-7 cells (ELISA); format: cell-based, human; conditions: 24 h, 21.15 μM
Method: as §4, §5
Human p53 present in MCF-7 cells was determined; using Human p53 ELISA-Kit (CS0070 Sigma) read using spectrophotometer at 450 nm against untreated control cells (negative control) applying the standard protocols of the manufacturers. The samples or standard having human p53 bind to antibodies adsorbed to the microwells. Addition of biotin-conjugated was followed by incubation and addition of dispense of unbound biotin-conjugated streptavidin HRP. Then, the reaction was terminated by adding acid, and the absorbance was measured at 450 nm.

VEGFR-2 = VEGFR-2 (Homo sapiens, UniProt P35968); experiment: In vitro inhibitory assessment against VEGFR-2 (ELISA, MCF-7 cell homogenates); format: cell-based; conditions: read-out: IC50 (mean ± SD) VEGFR-2
VEGFR-2, sequence (P35968 20-1356): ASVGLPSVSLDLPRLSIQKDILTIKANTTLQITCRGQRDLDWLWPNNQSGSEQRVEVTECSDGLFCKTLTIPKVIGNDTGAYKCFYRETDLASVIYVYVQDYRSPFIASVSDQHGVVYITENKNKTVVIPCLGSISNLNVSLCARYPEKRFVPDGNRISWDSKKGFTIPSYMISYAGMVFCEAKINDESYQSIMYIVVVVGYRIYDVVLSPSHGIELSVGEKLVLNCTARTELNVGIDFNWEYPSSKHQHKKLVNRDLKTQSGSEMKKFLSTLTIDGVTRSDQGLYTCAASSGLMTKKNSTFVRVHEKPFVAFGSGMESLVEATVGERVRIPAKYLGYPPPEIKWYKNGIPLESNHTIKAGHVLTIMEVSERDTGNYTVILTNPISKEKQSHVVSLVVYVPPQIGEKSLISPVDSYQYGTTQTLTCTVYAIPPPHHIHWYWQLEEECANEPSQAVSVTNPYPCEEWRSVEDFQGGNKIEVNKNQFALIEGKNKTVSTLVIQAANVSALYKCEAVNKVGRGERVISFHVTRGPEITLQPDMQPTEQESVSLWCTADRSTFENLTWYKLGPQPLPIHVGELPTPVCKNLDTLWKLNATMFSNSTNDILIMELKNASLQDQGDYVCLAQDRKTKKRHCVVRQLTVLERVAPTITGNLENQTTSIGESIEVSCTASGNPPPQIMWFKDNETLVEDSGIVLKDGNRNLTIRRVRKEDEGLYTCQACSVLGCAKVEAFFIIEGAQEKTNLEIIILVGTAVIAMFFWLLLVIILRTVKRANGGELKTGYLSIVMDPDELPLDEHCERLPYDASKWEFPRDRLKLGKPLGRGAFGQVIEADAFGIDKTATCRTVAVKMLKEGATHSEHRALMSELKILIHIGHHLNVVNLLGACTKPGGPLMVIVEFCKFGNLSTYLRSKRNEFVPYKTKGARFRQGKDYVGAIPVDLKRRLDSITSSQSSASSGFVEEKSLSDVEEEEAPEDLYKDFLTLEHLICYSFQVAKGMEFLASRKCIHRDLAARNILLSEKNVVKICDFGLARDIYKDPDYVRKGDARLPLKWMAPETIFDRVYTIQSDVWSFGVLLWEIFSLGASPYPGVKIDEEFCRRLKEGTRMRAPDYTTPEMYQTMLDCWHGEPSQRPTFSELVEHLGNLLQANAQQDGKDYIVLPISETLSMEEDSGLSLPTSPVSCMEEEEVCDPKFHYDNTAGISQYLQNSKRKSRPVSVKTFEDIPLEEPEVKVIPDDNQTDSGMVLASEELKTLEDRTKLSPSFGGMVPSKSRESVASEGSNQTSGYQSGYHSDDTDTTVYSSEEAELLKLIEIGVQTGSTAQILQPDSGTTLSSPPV
Method: as §1
The cells were harvested and the homogenates were prepared in saline using a tight pestle homogenizer until complete cell disruption. The kit uses a double-antibody sandwich enzyme-linked immunosorbent assay (ELISA) to determine the level of human VEGFR-2 in samples. A monoclonal antibody for VEGFR-2 was pre-coated onto 96-well plates. The test samples are added to the wells and a biotinylated detection polyclonal antibody from goat specific for VEGFR-2 was added subsequently followed by washing with PBS buffer. Avidin-Biotin-Peroxidase complex was added and the unbound conjugates were washed away with PBS buffer. HRP substrate TMB was used to visualize HRP enzymatic reaction. TMB was catalyzed by HRP to produce a blue color product that changed into yellow after adding acidic stop solution. The density of yellow color is proportional to the human VEGFR-2 amount of the sample captured in the plate. The chroma of color and the concentration of the human VEGFR-2 of the samples were positively correlated and the optical density was determined at 450 nm. The level of human VEGFR-2 in samples was calculated (pg/ml) as duplicate determinations from the standard curve. Percent inhibition was calculated in comparison to control untreated cells.

hCA XII = biological target: T2, hCA XII (Homo sapiens, UniProt O43570); experiment: Carbonic anhydrase inhibition, stopped-flow CO2 hydration, hCA XII; format: biochemical; conditions: read-out: IC50 (mean ± SD) Carbonic anhydrase isoforms hCA XII
T2 construct: made in house
T2 sequence (O43570 25-354): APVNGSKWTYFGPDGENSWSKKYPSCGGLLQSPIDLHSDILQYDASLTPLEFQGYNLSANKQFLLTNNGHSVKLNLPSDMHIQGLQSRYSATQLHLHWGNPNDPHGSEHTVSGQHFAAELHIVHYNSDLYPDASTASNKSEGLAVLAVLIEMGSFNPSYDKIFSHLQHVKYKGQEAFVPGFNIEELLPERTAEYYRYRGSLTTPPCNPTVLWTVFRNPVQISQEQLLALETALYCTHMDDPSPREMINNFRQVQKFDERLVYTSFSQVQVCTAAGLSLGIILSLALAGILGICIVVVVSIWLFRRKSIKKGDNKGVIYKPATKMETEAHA
Method: as §1, §2

[4] = tested on: breast MCF-7 cancer cell line; experiment: In vitro cytotoxic activity (MTT assay), MCF-7; format: cell-based, human; conditions: for inhibition at 100 µM / IC50: Homo sapiens, MCF7; for inhibition at 100 µM: 48 h, read-out: % inhibition ± SD MCF-7; for IC50: MCF-7 cells, MTT, read-out: IC50 (mean ± SD) MCF-7
Source text: as §3

[5] = tested on: colorectal HCT-116 cancer cell line; experiment: In vitro cytotoxic activity (MTT assay), HCT-116; format: cell-based, human; conditions: for inhibition at 100 µM / IC50: Homo sapiens; for inhibition at 100 µM: HCT-116, 48 h, read-out: % inhibition ± SD HCT-116; for IC50: HCT-116 cells, MTT, read-out: IC50 (mean ± SD) HCT-116
Source text: as §3

[6] = tested on: lung A-549 cancer cell line; experiment: In vitro cytotoxic activity (MTT assay), A-549; conditions: for inhibition at 100 µM / IC50: Homo sapiens; for inhibition at 100 µM: A549, 48 h, read-out: % inhibition ± SD A-549; for IC50: A549, read-out: IC50 (mean ± SD) A-549
Method: Exponentially, cells were placed in 10^4 cells/ well for 24 h, and then add fresh medium which containing different concentration of the tested sample. Serial two-fold dilution of the tested sample were added using a multichannel pipette. […] Rinse the wells using water until no stain. After that, add 30% glacial acetic acid to all wells with shaking plates on Microplate reader (TECAN, Inc.) to measure the absorbance, using a test wavelength of 490 nm. Besides, compare the treated samples with the control cell.

[7] = tested on: liver HepG-2 cancer cell line; experiment: In vitro cytotoxic activity (MTT assay), HepG-2; conditions: for IC50: Homo sapiens, HepG2, read-out: IC50 (mean ± SD) HepG-2
Source text: as §3

Bax = Bax level in MCF-7 cells; format: cell-based, human; conditions: 24 h, 21.15 μM
Source text: as §4, §5, §6

With `CC(=O)O[C@@H]1[C@@H](OC(C)=O)[C@H](OCc2cn(-c3ccc(S(=O)(=O)NC4CCCCC4)cc3)nn2)OC[C@H]1OC(C)=O` [Compound 9, N-cyclohexyl-4-(4-([2,3,4-tri-O-acetyl-β-D-xylopyranosyl]oxymethyl)-1H-1,2,3-triazol-1-yl)benzenesulfonamide] the IC50 (hCA IX) was 0.04 µM, the IC50 [1] was 87.22 ± 0.73 µM and the Bcl-2 (Bcl-2) was 3.27 ng/mL and 3.27 ± 0.18 ng/mL. The “Bcl-2 protein downregulated versus control” value (Bcl-2) was 2.6 times, the “Apoptosis Early” value (MCF-7 cells [2]) was 15.77% and the “Apoptosis Late” value (MCF-7 cells [2]) was 9.75%. For the same compound, the “Apoptosis Total” value (MCF-7 cells [2]) was 29.51, the Necrosis (MCF-7 cells [2]) was 3.99% and the “%G0-G1” value (MCF-7 cells [3]) was 52.69%. For the same compound, the “%G2/M” value (MCF-7 cells [3]) was 29.98%, the “%S” value (MCF-7 cells [3]) was 17.33% and the P53 (p53) was 930.69 ± 0.55 pg/mL. For the same compound, the “p53 protein level boosted versus control” value (p53) was 7.4 times, the IC50 (VEGFR-2) was 0.38 ± 0.14 µM and the IC50 (hCA XII) was 0.0032 µM. The “percentage cytotoxicity on MCF-7” value ([4]; 12.5 µM) was 32.60±6.13%, the “percentage cytotoxicity on MCF-7” value ([4]; 25 µM) was 52.27±0.43% and the “percentage cytotoxicity on MCF-7” value ([4]; 50 µM) was 83.30±1.87%. For the same compound, the “percentage cytotoxicity on MCF-7” value ([4]; 100 µM) was 92.73±1.04%, the inhibition at 100 µM ([4]; 100 µM) was 92.7 ± 1.04% and the IC50 [4] was 21.2 ± 2.45 µM. The “percentage cytotoxicity on HCT-116” value ([5]; 12.5 µM) was 34.51±0.44%, the “percentage cytotoxicity on HCT-116” value ([5]; 25 µM) was 53.50±0.93% and the “percentage cytotoxicity on HCT-116” value ([5]; 50 µM) was 67.00±0.12%. The “percentage cytotoxicity on HCT-116” value ([5]; 100 µM) was 75.70±0.48%, the inhibition at 100 µM ([5]; 100 µM) was 75.7 ± 0.48% and the IC50 [5] was 23.6 ± 0.22 µM. The “percentage cytotoxicity on A-549” value ([6]; 12.5 µM) was 43.13±0.73%, the “percentage cytotoxicity on A-549” value ([6]; 25 µM) was 47.60±0.32% and the “percentage cytotoxicity on A-549” value ([6]; 50 µM) was 75.53±1.16%. For the same compound, the “percentage cytotoxicity on A-549” value ([6]; 100 µM) was 90.00±0.95%, the inhibition at 100 µM [6] was 90 ± 0.95% and the IC50 [6] was 19.8 ± 0.65 µM. For the same compound, the “percentage cytotoxicity on HepG-2” value ([7]; 12.5 µM) was 58.20±1.50%, the “percentage cytotoxicity on HepG-2” value ([7]; 25 µM) was 63.70±2.29% and the “percentage cytotoxicity on HepG-2” value ([7]; 50 µM) was 82.59±0.87%. For the same compound, the “percentage cytotoxicity on HepG-2” value ([7]; 100 µM) was 82.60±1.73%, the IC50 [7] was 8.39 ± 0.2 µM and the Bax (Bax) was 271.45 pg/mL and 271.45 ± 0.25 pg/mL. The Bax/Bcl-2 (Bax) was 83.01 and the “increase in Bax levels compared to untreated control cells” value (Bax) was 6.2 fold.
In the case of `[N-]=[N+]=Nc1ccc(S(=O)(=O)NC2CCCCC2)cc1` [Compound 4, 4-Azido-N-cyclohexylbenzenesulfonamide], the IC50 (hCA IX) is reported as 0.142 µM, the IC50 [1] is reported as 78.3 ± 1.56 µM and the melting point is reported as 65 to 67 °C. For the same compound, the IC50 (VEGFR-2) was 181 ± 0.66 µM, the IC50 (hCA XII) was 0.0359 µM and the “percentage cytotoxicity on MCF-7” value ([4]; 12.5 µM) was 35.03±2.83%. The “percentage cytotoxicity on MCF-7” value ([4]; 25 µM) was 58.31±3.30%, the “percentage cytotoxicity on MCF-7” value ([4]; 50 µM) was 78.50±0.37% and the “percentage cytotoxicity on MCF-7” value ([4]; 100 µM) was 91.20±0.09%. The inhibition at 100 µM ([4]; 100 µM) was 91.2 ± 0.09%, the IC50 [4] was 19.6 ± 1.1 µM and the “percentage cytotoxicity on HCT-116” value ([5]; 12.5 µM) was 34.64±0.48%. The “percentage cytotoxicity on HCT-116” value ([5]; 25 µM) was 51.93±0.58%, the “percentage cytotoxicity on HCT-116” value ([5]; 50 µM) was 86.90±0.28% and the “percentage cytotoxicity on HCT-116” value ([5]; 100 µM) was 94.83±0.87%. For the same compound, the inhibition at 100 µM ([5]; 100 µM) was 94.83 ± 0.87%, the IC50 [5] was 20.3 ± 0.33 µM and the “percentage cytotoxicity on A-549” value ([6]; 12.5 µM) was 21.37±1.55%. For the same compound, the “percentage cytotoxicity on A-549” value ([6]; 25 µM) was 34.87±0.75%, the “percentage cytotoxicity on A-549” value ([6]; 50 µM) was 70.87±1.63% and the “percentage cytotoxicity on A-549” value ([6]; 100 µM) was 97.43±0.67%. For the same compound, the inhibition at 100 µM [6] was 97.43 ± 0.67%, the IC50 [6] was 30.9 ± 0.65 µM and the “percentage cytotoxicity on HepG-2” value ([7]; 12.5 µM) was 85.13±1.65%. The “percentage cytotoxicity on HepG-2” value ([7]; 25 µM) was 86.23±0.98%, the “percentage cytotoxicity on HepG-2” value ([7]; 50 µM) was 85.67±2.50% and the “percentage cytotoxicity on HepG-2” value ([7]; 100 µM) was 87.30±0.91%. The IC50 [7] was 12.5 ± 0.51 µM.
